Results from patent US20230220480A1, “IRON-SCORE AND IN VITRO METHOD FOR IDENTIFYING HIGH RISK DLBCL SUBJECTS AND THERAPEUTIC USES AND METHODS” (CENTRE NATIONAL DE LA RECHERCHE SCIENTIFIQUE (CNRS), priority 2019, published 2023).
Where two headings read alike, the source gives them in different places.

Columns and labels:
OCI-LY3 = assay: Cell viability assay (CellTiter-Glo, ATP quantification); assay type: cell-based, human; settings: cell viability by ATP quantification, read-out: 50% inhibitory concentration (IC50)
Protocol: (§1) FIG. 3: Iron chelators and Ironomycin inhibit DLBCL cell growth DLBCL cells were incubated with different concentrations of iron chelators or vehicle for 96H. Inhibitory concentration 50% (IC50) was calculated with concentration-response curve after treatment with Deferoxamin (A), Deferasirox, (B) and Ironomycin (C). Cell viability was examined using quantification of ATP assay. Data are expressed as mean percentage+/−SEM of at least three independent experiments performed in sixplicate.
(§2) The 16 DLBCL cell lines (U2932, OCI-LY-3, NU-DHL-1, OCI-LY-19, DB, SUDHL4, OCILY1, SUDHL5, DOHH2, SUDHL10, HT, RI-1, SU-DHL-6, NUDUL-1, WSU-DLCL-2 and OCI-LY-7) were purchased from the DSMZ (Leibniz-Institut DSMZ—Deutsche Sammlung von Mikroorganismen und Zellkulturen GmbH, Germany). They were maintained in RPMI-1640 (Gibco, Invitrogen), supplemented with 10% fetal bovine serum (PAA laboratory GmbH) for U2932, SUDHL-4, HT, DOHH2, SUDHL-10, RI-1, WSU-DLCL-2 cell lines, 20% FBS OCI-LY3, DB, SUDHL-5, NUDHL-1, SU-DHL-6, NUDUL-1 cell lines. OCI-LY1 and OCI-LY7 were cultured in IMDM (Gibco, Invitrogen), supplemented with 20% fetal bovine serum and OCI-LY19 was cultured in MEM alpha modified (Gibco, Invitrogen), supplemented with 20% fetal bovine serum. Cultures were maintained at 37° C. in a humidified atmosphere with 5% CO2.
(§3) DLBCL-derived cell lines were cultured for 4 days in 96-well flat-bottom microtiter plates in RPMI 1640 medium, 10% or 20% FCS (control medium) in the presence of various compounds. The number of viable cells in culture was determined using the CellTiter-Glo Luminescent Cell Viability Assay from Promega, Madison, Wis., USA using a Centro LB 960 luminometer (Berthold Technologies, Bad Wildbad, Germany).
(§4) This test is based on quantitation of the intracellular ATP present, which signals the presence of metabolically active cells. Data are expressed as the mean percentage of six replicates, normalized to the untreated control.

U2932 = assay: as above; assay type: cell-based, human; settings: cell viability by ATP quantification, read-out: 50% inhibitory concentration (IC50)
Protocol: as §1, §2, §3, §4

SUDHL-5 = assay: as above; assay type: cell-based, human; settings: SUDHL-5, 96H, cell viability by ATP quantification, read-out: 50% inhibitory concentration (IC50)
Protocol: as §1, §2, §3, §4

DB = assay: as above; assay type: cell-based, human; settings: cell viability by ATP quantification, read-out: 50% inhibitory concentration (IC50)
Protocol: as §1, §2, §3, §4

[1] = tested on: OCI-LY3 and DB cell lines
Excerpt: The inventors further investigated the effect of Iron supplementation on the cell death induced by these treatments. Iron chelators concentrations were chosen according the maximal plasmatic concentration achievable in the patient (Nisbet-Brown et al., 2003).
Chaetocin was used as positive control of ROS production inhibited by GSH (Isham et al., 2007).

DLBCL cells = assay: Ferroptosis, Bodipy-C11 staining and ferrostatin-1 rescue; assay type: cell-based, human

Compound	IC50 (OCI-LY3; Homo sapiens, OCI-Ly3, 96 h) [µM]	IC50 (OCI-LY3; OCI-LY3, 96H) [µM]	IC50 (U2932; Homo sapiens, U2932, 96 h) [µM]	IC50 (U2932; U2932, 96H) [µM]	IC50 (SUDHL-5; Homo sapiens, SU-DHL-5, 96 h) [µM]	IC50 (SUDHL-5) [µM]	IC50 (DB; 96H) [µM]	IC50 (DB; Homo sapiens, 96 h) [µM]	effect of iron supplementation on drug-induced apoptosis / cytotoxicity [1]	effect on erastin (ferroptosis inductor, positive control) (DLBCL cells)	toxicity in DLBCL cells (DLBCL cells)
O=C(O)c1ccc(-n2nc(-c3ccccc3O)nc2-c2ccccc2O)cc1 [Deferasirox]	9.5	9.5	4.79	4.79	1.48	1.48	13.9	13.9	significantly inhibited		
CC(=O)N(O)CCCCCNC(=O)CCC(=O)N(O)CCCCCNC(=O)CCC(=O)N(O)CCCCCN [Deferoxamine]	3.75	3.75	2.42	2.28	1.55	1.55	3.25	3.24	significantly inhibited		
CCOC(=O)c1ccc(NC2CCCCC2)c(N)c1 [Ferrostatin, Ferrostatin-1, reference compound]										abrogated the effects of erastin	did not demonstrated significant toxicity
